Laboratory results taken from ChEMBL document CHEMBL4145588, “2,7-Diazaspiro[4,4]nonanes for the Treatment or Prevention of Cancers and Diabetes” (ACS Med Chem Lett, 2018).

Molecular target: T1, Menin (Homo sapiens, UniProt O00255)
T1 sequence (O00255 whole entry): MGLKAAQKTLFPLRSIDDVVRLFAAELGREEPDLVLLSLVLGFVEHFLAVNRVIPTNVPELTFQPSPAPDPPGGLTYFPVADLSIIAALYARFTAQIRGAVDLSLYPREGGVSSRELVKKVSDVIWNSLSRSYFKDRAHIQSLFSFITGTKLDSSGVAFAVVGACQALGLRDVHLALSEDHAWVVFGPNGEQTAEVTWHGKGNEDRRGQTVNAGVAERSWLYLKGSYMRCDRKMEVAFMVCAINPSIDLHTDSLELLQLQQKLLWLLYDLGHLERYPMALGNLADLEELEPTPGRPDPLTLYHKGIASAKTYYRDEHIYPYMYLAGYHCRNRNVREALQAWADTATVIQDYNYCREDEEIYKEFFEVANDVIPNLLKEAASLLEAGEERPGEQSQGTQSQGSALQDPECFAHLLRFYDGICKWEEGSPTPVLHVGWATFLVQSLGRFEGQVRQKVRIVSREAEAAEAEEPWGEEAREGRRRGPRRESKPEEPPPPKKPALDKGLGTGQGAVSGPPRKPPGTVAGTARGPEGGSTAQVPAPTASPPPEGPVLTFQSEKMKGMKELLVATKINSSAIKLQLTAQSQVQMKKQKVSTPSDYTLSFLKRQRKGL
Experiment: Inhibition of biotinylated MLL-1 derived biotinylated Btn-PEG2- PEG2-S-Nva-RWRFPARPGTT-Amide binding to recombinant full length N-terminal His-tagged menin (unknown origin) expressed in Escherichia coli incubated for 10 mins by TR-FRET assay

IC50 [nM] | SMILES
20 | N#CCc1ccc(CN2CCC3(CCN(c4ncnc5sc(CC(F)(F)F)cc45)C3)C2)cc1 (centres undefined)
20 | CC(C)(C#N)c1ccc(CN2CCC3(CCN(c4ncnc5sc(CC(F)(F)F)cc45)C3)C2)cc1 (centres undefined)
10 | C=CC(=O)Nc1ccc(CN2CCC3(CCN(c4ncnc5sc(CC(F)(F)F)cc45)C3)C2)cc1 (centres undefined)
4 | NS(=O)(=O)Cc1ccc(CN2CCC3(CCN(c4ncnc5sc(CC(F)(F)F)cc45)C3)C2)cc1 (centres undefined)
10 | O=S(=O)(Cc1ccc(CN2CCC3(CCN(c4ncnc5sc(CC(F)(F)F)cc45)C3)C2)cc1)NCCO (centres undefined)
10 | CN(CCO)c1ccc(CN2CCC3(CCN(c4ncnc5sc(CC(F)(F)F)cc45)C3)C2)cc1 (centres undefined)
10 | NS(=O)(=O)Cc1ccc(CN2CCC3(CCN(c4ncnc5cc(CC(F)(F)F)sc45)C3)C2)cc1 (centres undefined)
10 | FC(F)Cc1cc2c(N3CCC4(CCN(Cc5ccc(N6CCOCC6)cc5)C4)C3)ncnc2s1 (centres undefined)
10 | CC(c1ccc(CN2CCC3(CCN(c4ncnc5sc(CC(F)(F)F)cc45)C3)C2)cc1)S(N)(=O)=O (centres undefined)
